Results published in a melting point compilation (Tetko et al.; mined from patent text by program, amines drawn as free bases though some values may be those of a salt).
Residues, ends and D or L forms follow the SMILES beside them. *: point of attachment. Boc = CC(C)(C)OC(=O)*

| melting point [°C] | SMILES |
| --- | --- |
| 109 | CC1=CC(c2cccc(Cl)c2)C(c2cccs2)=NN1 (configuration not stated) |
| 148 to 150 | COC(=O)c1cc(I)cc2c1Nc1ccccc1C2 |
| 113 to 114 | COC(=O)CCc1cc(C)c(OP(Oc2c(C)cc(CCC(=O)OC)cc2C(C)(C)C)Oc2c(C)cc(CCC(=O)OC)cc2C(C)(C)C)c(C(C)(C)C)c1 |
| 204 to 205 | C=CCN1CC(=O)N(c2cc(C(=O)NCCCOc3ccc(C(C)(C)CC)cc3C(C)(C)CC)c(O)c3ccccc23)C1=S |
| 157 to 158 | Oc1cc(O)cc(-c2ccccc2)c1 |
| 159 to 161 | CC1=C(C(=O)OC(C)(C)C)C(c2ccccc2[N+](=O)[O-])C(C(=O)OC(C)(C)C)=C(C)N1 |
| 159 to 161 | Cc1ccc2c(-n3ccnc3)c(F)ccc2n1 |
| 42 to 43 | COC(=O)c1sccc1COC(C)=O |
| 143 to 144 | CC(=O)SCC(Cc1ccccc1)C(=O)Nc1cc(Cl)ccc1C(=O)O (configuration not stated) |
| 95 to 98 | CCOC(=O)CSc1nc(Cl)cc(NCc2ccc(C)cc2C)n1 |
| 153 to 155 | COc1ccc2c(Cl)nc(Cl)nc2c1OC |
| 192 to 194 | Cc1nnc(NC(=O)c2sccc2S(=O)(=O)Nc2onc(C)c2Cl)s1 |
| 70 | COc1ccc(S(=O)(=O)N(CC(F)(F)F)c2ccc(Cl)cc2Cc2c(F)cccc2F)cc1OC |
| 226 to 227 | Cc1nnc(-c2ccc3occ(-c4ccc(O)cc4)c3c2)o1 |
| 135 to 137 | COC(=O)C1=C(CO)NC(C)=C(C(=O)OC(C)C)C1c1ccccc1[N+](=O)[O-] (configuration not stated) |
| 243 to 245 | COc1ccc(C(C)C)cc1CN[C@H]1[C@H]2CCN(C[C@@H]2C(=O)NC(C)C(N)=O)[C@H]1C(c1ccccc1)c1ccccc1 (some centres not stated) |
| 288 | C[C@@H](c1ccc(F)cc1)N1CCN(c2cc(Oc3cc(F)cc4[nH]c(=O)c(N)nc34)ncn2)CC1 |
| 78 to 80 | CCCCCCCN(CCCCCSc1nc(-c2ccccc2)c(-c2ccccc2)[nH]1)C(=O)NCCC |
| 236 to 237 | CCC(C)(C)Nc1c(NCc2cccc(Cl)c2C)c(=O)c1=O |
| 183 to 185 | Nc1cccc2c1CN(C(CCC(=O)O)C(=O)O)C2=O (configuration not stated) |
| 56 to 57.5 | CCCCCCCCCCCCCCCCS(=O)(=O)NCCCCCCCN(C)C |
| 227 to 229 | COc1ccc2nc(NC(=O)C(CC3CCCC3)c3ccc(S(=O)(=O)NCc4cccnc4)cc3)sc2n1 (configuration not stated) |
| 118 to 120 | CCOC(=O)C1=Cc2cc(Cl)ccc2N(C)C1C(F)(F)F (configuration not stated) |
| 190 | COCOc1ccc(C(=O)Cn2c(-c3nonc3N)nc3ccccc32)cc1OC |

| melting point [°C] | SMILES |
| --- | --- |
| 158 to 159 | O=C1C2CCCC2=Nc2ccc(F)cc2N1Cc1ccccc1 (configuration not stated) |
| 198 | CCOC(=O)C1=C(C)Nc2nc(N3CCOCC3)nc(N3CCOCC3)c2C1c1cccc2ccccc12 (configuration not stated) |
| 115 to 117 | CC(C)NCC(=O)N1c2ccccc2N(C)S(=O)(=O)c2ccccc21 |
| 208 to 209 | O=c1c2cc(F)c(Cl)nc2n(-c2ccc(F)cc2)c(=O)n1OCc1ccccc1 |
| 180 to 182 | N=C(N)Nc1nc(-c2cccc(N)c2)cs1 |
| 106 to 107 | Nc1ccn(-c2cccc(Cl)c2)n1 |
| 90 to 95 | O=C(c1cc2ccccc2cn1)N(O)CCc1ccccc1 |
| 207 | Cn1c(C(F)(F)F)nn(Cc2c(Cl)ccc(C(=O)O)c2Cl)c1=O |
| 123 | CCc1cccc(CC(=O)O)c1OCCCc1cn(-c2ccc(Br)cn2)nc1C(CC)CC |
| 186 to 189 | O=S1(=O)N=C2CCCN2c2ccc(Oc3cccc(-c4ccco4)c3)cc21 |
| 83 to 85 | COc1ccc2nc(NC(=O)C(CC3CCCC3)c3ccc(S(=O)(=O)N(C(C)C)C(C)C)cc3)sc2n1 (configuration not stated) |
| 73 to 76 | N#CC1Cc2ccc(N)cc2C1 (configuration not stated) |
| 76 | O=C1N(Cc2ccccc2)OCCN1c1ccc(Cl)c(Cl)c1 |
| 132 | COc1ccc(S(=O)(=O)N(CC(N)=O)c2ccc(Cl)cc2C(O)c2cc(Cl)ccc2Cl)cc1OC (configuration not stated) |
| 43 to 45 | COCCOCCOCCOc1cc([N+](=O)[O-])c([N+](=O)[O-])cc1OCCOCCOCCOC |
| 142 to 144 | COc1ccc(CNc2cc(OCc3ccccn3)ccc2C(=O)c2cc(OC)c(OC)c(OC)c2)cc1Cl |
| 82 to 84 | O=C(O)c1cc(C(F)(F)F)c(F)c(F)c1F |
| 228 to 229 | O=C(Nc1cc(-c2ccc(Cl)cc2)on1)c1c(Cl)cccc1Cl |
| 153 to 157 | O=C(C(=Cc1ccc([N+](=O)[O-])cc1)c1ccccc1)c1ccc(O)cc1 |
| 65 to 67 | c1ccc2sc(SSN3CCCCCC3)nc2c1 |
| 228 to 229 | N=C(N)Nc1nc(CCCCNc2c(NCCCCc3csc(NC(=N)N)n3)c(=O)c2=O)cs1 |
| 149 | O=c1[nH]c(=O)n(C2CC(Cl)C(CBr)O2)cc1C=CBr (configuration not stated) |
| 210 to 212 | CCOC(=O)c1cn(-c2ccccc2)c2oc(CN3CCOCC3)cc2c1=O |
| 108 | C=C(C)C(=O)OCCc1ccc(-c2ccc(OC(=O)C(=C)C)cc2)cc1 |

| melting point [°C] | SMILES |
| --- | --- |
| 100 to 102 | Clc1nccc2[nH]cnc12 |
| 94 to 95 | C=CCOC(=O)c1c(C)c(OC)cc(O[Si](C)(C)C(C)(C)C)c1C=O |
| 151 | Cc1ccc(O)c(C(OC2CCN(C)CC2)c2nc3ccccc3[nH]2)c1 (configuration not stated) |
| 160 to 161 | CN(C)c1cc2c(cc1O)CCC1C2CCC2(C)C(=O)CCC12 (configuration not stated) |
| 156 | COC(=O)CCC(=O)NS(=O)(=O)c1ccc([N+](=O)[O-])cc1 |
| 228 to 230 | Cc1ccc(-c2nc(NC(=O)c3nnn[nH]3)cs2)cc1 |
| 192 | CC(C)(C)CC(=O)N[C@H]1CC[C@H](CCN2CCN(c3nccc4c3CCO4)CC2)CC1 |
| 206 to 208 | O=C(O)COc1cc2c(-c3ccc(Cl)cc3)csc2c(Cl)c1Cl |
| 162 to 166 | O=C(c1cccs1)c1cnn2c(-c3cc([N+](=O)[O-])ccc3Cl)ccnc12 |
| 140 to 142 | CN(C)c1ccc(N=Nc2ccccc2C(=O)NCCNC(=O)CI)cc1 |
| 122 to 123 | COc1ccc(S(=O)(=O)Nc2cccnc2Nc2ccc(OS(=O)(=O)c3ccc(OC)cc3)cc2)cc1 |
| 132 to 135 | O=CC12CC3CC(CC(C3)C1)C2 |
| 172 to 175 | COC(=O)c1sccc1Nc1ccc(F)cc1[N+](=O)[O-] |
| 225 to 228 | CSCC[C@H](NC(=O)OC(C)(C)C)C(=O)Oc1ccc(NC(C)=O)cc1 |
| 133 | COc1ccc(C(=O)CCC(=O)c2ccc3ccccc3c2)cc1OC |
| 87 | CCCCN(C(=O)C(C)C)c1ccc(-c2ccccc2)o1 |
| 184 to 187 | COC[C@H]1O[C@H](ONC(=O)c2nc(-c3ccc(Cl)c(OC)c3F)cc(N)c2Cl)[C@H](OC)[C@@H](OC)[C@@H]1OC |
| 123 | O=C(O)COc1cscc1Cl |
| 174 to 176 | N#Cc1ccc(C=NO)cc1 |
| 184 | Oc1ccccc1CNc1cncc(Br)c1 |
| 65 to 66.5 | CC(C)(C)[Si](C)(C)N1C(=O)CC1CC(=O)CC(=O)OCc1ccc([N+](=O)[O-])cc1 (configuration not stated) |
| 119 to 121 | N#Cc1cnc2n(c1=O)CCC2 |
| 276 | O=c1[nH]c2ccc(Br)cc2cc1[N+](=O)[O-] |
| 105 | Nc1ccc(I)cc1C=O |

| melting point [°C] | SMILES |
| --- | --- |
| 126 to 128 | Clc1ccc(C(=Cn2cncn2)c2ccc(Cl)cc2)cc1 |
| 183 to 185 | CCC(=Nc1ccc2c(c1)C(=O)c1ccc(N=C(CC)N3CCCCC3)cc1C2=O)N1CCCCC1 |
| 194 to 197 | CC(NC(=O)C(Cc1ccc(O)cc1)NC(=O)OC(C)(C)C)C(=O)NCC(=O)O (stereo not drawn) (Boc-Tyr-Ala-Gly-OH; configuration not given here) |
| 243 to 244 | CCCCc1ncc(C=C(Cc2cccs2)C(=O)O)n1Cc1cccc(C(=O)O)c1 |
| 149 to 150 | Cc1oc(-c2ccccc2)nc1COc1ccc(COc2ncccc2CC#N)cc1 |
| 221 to 223 | Cc1ccc(S(=O)(=O)C2(CC#Cc3ccc(Cl)cc3)SC(=O)N(C(c3ccccc3)(c3ccccc3)c3ccccc3)C2=O)cc1 (configuration not stated) |
| 224 to 226 | COc1ccc(C(=O)O)c2c1OCCO2 |
| 150 to 151 | CCCCOC(=O)COc1ccc(C(=O)Nc2ccccc2Sc2cccc(C)c2-c2nnn[nH]2)cc1 |
| 176 to 179 | CCc1c(CC(N)=O)c2cc(OCCCC(N)=O)ccc2n1Cc1ccccc1 |
| 182 to 184 | N#CC(Cc1cccc(F)c1)n1nnc2cc3c(cc2c1=O)OC1CCCN1C3=O (configuration not stated) |
| 194 | CCN(CC)C(=O)c1cccc(-c2nc(=O)c3ccccc3s2)n1 |
| 144 to 145 | COc1ccc(C2(O)OC(=O)C(c3cc(OC)c4c(c3)OCO4)=C2CC2CCCC2)cc1C (configuration not stated) |
| 149 to 151 | Oc1ccc(-c2ncnc(C(F)(F)F)c2Cl)cc1 |
| 130 to 131 | COc1ccc(C(=O)Oc2ccccc2)cc1Nc1ccccc1 |
| 214 | N#Cc1ccc(-c2cncc(OC3SCC(O)C(O)C3O)c2)cc1F (configuration not stated) |
| 142 to 144 | CC1CC(=Cc2ccccc2OCC(O)CN2CCC(c3ccc4ccccc4c3)CC2)C(=O)O1 (configuration not stated) |
| 56 to 60 | CCC(=O)NCC1CCC(Nc2nc3c(s2)CCOc2ccccc2-3)CC1 (configuration not stated) |
| 46 to 52 | CCC(CC)Nc1cc(COC(C)=O)c([N+](=O)[O-])cc1[N+](=O)[O-] |
| 222 to 224 | Cn1c(COc2nc(CCC(=O)O)oc2-c2ccccc2)nc2ccccc21 |
| 141 to 142 | Nc1c(C=O)c(=O)n(-c2ccccc2)c(=O)n1-c1ccccc1 |
| 171 | CCCc1nc(CSc2ccc(CCC(=O)O)cc2)c(C(=O)O)n1Cc1cc2c(cc1Cl)OCO2 |

| SMILES | melting point [°C] |
| --- | --- |
| CN(C)C[C@@H]1C[C@H]1c1c[nH]c2ccc(C#N)cc12 (relative stereo) | 120 to 121 |
| COC(=O)CC1CC(c2ccc(C#N)nc2)=NO1 (configuration not stated) | 115 to 116 |
| N#CCCCN1CC=C(c2ccccc2)CC1 | 57 to 59 |
| CN1Cc2c(C(N)=O)ncn2-c2cccc(Br)c2C1=O | 278 to 279 |
